From patent EP4420661B1, “SMALL MOLECULES TARGETING GLYCOPROTEIN VI AS ANTIPLATELET AGENTS FOR USE IN THE PREVENTION AND/OR TREATMENT OF THROMBOSIS AND ASSOCIATED PATHOLOGIES” (Universidade de Santiago de Compostela, priority 2023, dated 2024)

Key:
human platelets = assay: intracellular Ca+2 mobilization assay, CRP-activated washed platelets (FLIPR Calcium 4); format: cell-based; details: Platelet, calcium mobilization in human platelets, read-out: % Inhibition of CRP effect at 1µM, Mean
Procedure: An intracellular Ca^+2 mobilization assay was used to test the activity of the ligands in platelets. This assay measures the changes in calcium in real time by fluorophore dye Calcium 4, providing a useful way to characterize platelet activation by GPVI signaling [Barrachina et al. (2021)].
Washed platelets (5x10E6) were incubated with FLIPR Calcium 4 reagent (Molecular Devices LLC, San Jose, CA, USA) in a 384-well transparent bottom plate (Greiner Bio-One International GmbH, Kremsmünster, Austria) and supplemented with Probenecid (Invitrogen™, Carlsbad, CA, USA) 0.07% for 1 h at 37 °C. Platelets were co-incubated for 10 min with the tested compounds and inhibitors of secondary mediators (2 U/mL apyrase and 10 microM indomethacin (Sigma-Aldrich, Saint Louis, MO, USA)) under nonaggregating conditions (9 microM eptifibatide (Cayman Chemicals, Ann Arbor, MI, USA)). Then, the GPVI-specific agonist Collagen-Related Peptide (CRP) was added to the platelet suspension at different doses. Both potential GPVI inhibitors and CRP were automatically dispensed by FDSS7000EX Functional Drug Screening System (Hamamatsu Photonics, Hamamatsu, Japan). Intracellular Ca^2+ mobilization was assessed by measuring fluorescence changes ([…] wavelengths) in real time for 15 min after the addition of the agonist. 100% was expressed as maximal Ca^2+ release in platelets treated with the agonist CRP. To determine IC50, compounds were tested at 9 different concentrations in duplicates starting from 10 uM and performing 1:3 serial dilutions. The analysis of the data was performed with GraphPad Prism® software (version 6.0e, March 2014) (GraphPad Software, San Diego, CA, USA) by carrying out a nonlinear regression fit for log(inhibitor) vs. relative CRP activity using a Hill slope of -1, and top and bottom constraints of 100 and 0, respectively.

CYP1A2 = molecular target: T1, CYP1A2 (Homo sapiens, UniProt P05177); assay: CYP inhibition, liver microsomes, substrate cocktail; format: in vitro ADME
T1 construct: 0.5 mg protein/mL of liver microsomes (HLM Xenotech); tissue Xenotech; host or cells: liver microsomes
T1 sequence (P05177 1-516): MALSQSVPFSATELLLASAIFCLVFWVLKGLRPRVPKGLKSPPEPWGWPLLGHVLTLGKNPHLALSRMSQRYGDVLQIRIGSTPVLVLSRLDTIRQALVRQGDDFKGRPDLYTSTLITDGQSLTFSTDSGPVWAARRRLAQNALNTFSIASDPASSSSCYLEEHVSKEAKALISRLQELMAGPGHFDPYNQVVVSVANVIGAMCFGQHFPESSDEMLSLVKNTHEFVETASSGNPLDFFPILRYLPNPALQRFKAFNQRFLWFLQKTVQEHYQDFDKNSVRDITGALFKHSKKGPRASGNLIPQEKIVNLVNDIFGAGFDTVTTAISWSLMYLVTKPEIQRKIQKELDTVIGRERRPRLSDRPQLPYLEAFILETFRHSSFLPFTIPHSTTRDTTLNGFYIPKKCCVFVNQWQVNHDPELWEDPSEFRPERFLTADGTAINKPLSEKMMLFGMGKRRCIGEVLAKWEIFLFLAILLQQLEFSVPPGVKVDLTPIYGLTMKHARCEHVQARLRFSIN
Procedure: (§1) Cytochrome P450 (CYP) are a family of enzymes which play a major role in the metabolism of drugs. Assessment of the potential of a compound to inhibit a specific cytochrome P450 enzyme is important as co-administration of compounds may result in one or both inhibiting the other's metabolism.
(§2) All the incubations were performed in 250 µL reaction medium containing sodium/potassium phosphate buffer 50mM, pH 7.4, 3mM MgCl2, an NADPH regeneration system 1mM NADP, 10mM glucose 6-phosphate, and 1 U/mL glucose 6-phosphate dehydrogenase, 0.5 mg protein/mL of liver microsomes (HLM Xenotech), and a substrate cocktail composed of phenacetin for CYP1A2, diclofenac for CYP2C9, S-mephenytoin for CYP2C19, bufuralol for CYP2D6, midazolam for CYP3A4, and testosterone for CYP3A4. Final concentrations of substrate in the reaction medium were: 10 µM phenacetin, 10 µM diclofenac, 5 µM bufuralol, 100µM S-Mephenytoin, 5 µM midazolam, and 50 µM testosterone. Following incubation at 37°C for 25 min, the reactions were terminated by the addition of ice-cold acetonitrile and the plate was centrifuged at 4000 g for 60 min at 4°C.
(§3) Supernatant was taken and analyzed by UPLC/MS/MS for sample quantification The chromatographic equipment employed was an UPLC QSM Waters Acquity. Stationary phase: Reverse phase Acquity UPLC® BEHC18 1,7 µm (2.1 mm x 100 mm) (Waters) Mobile phase: 0.1% Formic acid water/0.1% formic acid in acetonitrile. Flow: 0.8 ml/min. Gradient: Table 10: UPLC gradient / CYP inhibition assay

CYP2C19 = molecular target: T2, CYP2C19 (Homo sapiens, UniProt P33261); assay: as above; format: in vitro ADME
T2 construct: 0.5 mg protein/mL of liver microsomes (HLM Xenotech); tissue Xenotech; host or cells: liver microsomes
Procedure: as §1, §2, §3

CYP2C9 = molecular target: T3, CYP2C9 (Homo sapiens, UniProt P11712); assay: as above; format: in vitro ADME
T3 construct: 0.5 mg protein/mL of liver microsomes (HLM Xenotech); tissue Xenotech; host or cells: liver microsomes
Procedure: as §1, §2, §3

Plasma protein = assay: plasma protein binding, Rapid Equilibrium Dialysis (RED), human; format: in vitro ADME; details: 5 µM, 4h at 37°C
Procedure: (§4) Plasma from Seralab was employed in the assay and was carried out by employing Rapid Equilibrium Dialysis (RED) from Thermo Scientific.
(§5) The compounds were dissolved at 5 µM in plasma and added to the corresponding insert of the RED device. Dialysis buffer was added to the corresponding insert of the RED device. Plate was incubated for 4h at 37°C.
(§6) After the incubation period 50 µL aliquots of each chamber were transferred to empty vials. 50 µL of dialysis buffer were added to the plasma samples and 50 µL of plasma were added to the buffer samples. 300 µL of acetonitrile were added to all the samples and centrifuged at 4000 rpm 100 µL aliquots of the supernatants were transferred to a LC analysis plate. Samples were analyzed in a UPLC/MS/MS. Stationary phase: Acquity UPLC® BEHC18 1,7 µm (2.1 mm x 50 mm) (Waters). Gradient: A (H2O + 0.1% Formic acid); B (ACN + 0.1% Formic acid); Flow: 0.6mL/min Table 8: UPLC gradient / Protein binding assay
(§7) The chromatographic equipment employed was an ACQUITY UPLC / Xevo TQD System. Compound concentrations were calculated from the MS peak areas. Table 9: Plasma protein binding of the compounds of formula (I) in rat, mice, dogs and humans / (*) low recovery

[1] = as above; format: in vitro ADME; details: 4h at 37°C
Procedure: as §4, §5, §6, §7

T3 sequence (P11712 whole entry): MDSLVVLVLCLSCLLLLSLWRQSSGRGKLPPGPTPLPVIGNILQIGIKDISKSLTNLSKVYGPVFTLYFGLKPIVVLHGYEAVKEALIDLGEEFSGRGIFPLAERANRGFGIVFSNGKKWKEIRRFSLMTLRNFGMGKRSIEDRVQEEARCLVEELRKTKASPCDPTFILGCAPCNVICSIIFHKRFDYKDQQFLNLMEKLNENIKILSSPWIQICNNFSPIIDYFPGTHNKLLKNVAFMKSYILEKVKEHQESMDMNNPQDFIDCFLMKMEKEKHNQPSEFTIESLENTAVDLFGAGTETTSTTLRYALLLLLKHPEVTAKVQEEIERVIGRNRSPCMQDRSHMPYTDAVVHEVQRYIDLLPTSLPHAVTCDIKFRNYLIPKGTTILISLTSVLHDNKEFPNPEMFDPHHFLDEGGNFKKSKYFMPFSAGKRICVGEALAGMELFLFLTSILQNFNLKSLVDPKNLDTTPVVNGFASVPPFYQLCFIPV
T2 sequence (P33261 whole entry): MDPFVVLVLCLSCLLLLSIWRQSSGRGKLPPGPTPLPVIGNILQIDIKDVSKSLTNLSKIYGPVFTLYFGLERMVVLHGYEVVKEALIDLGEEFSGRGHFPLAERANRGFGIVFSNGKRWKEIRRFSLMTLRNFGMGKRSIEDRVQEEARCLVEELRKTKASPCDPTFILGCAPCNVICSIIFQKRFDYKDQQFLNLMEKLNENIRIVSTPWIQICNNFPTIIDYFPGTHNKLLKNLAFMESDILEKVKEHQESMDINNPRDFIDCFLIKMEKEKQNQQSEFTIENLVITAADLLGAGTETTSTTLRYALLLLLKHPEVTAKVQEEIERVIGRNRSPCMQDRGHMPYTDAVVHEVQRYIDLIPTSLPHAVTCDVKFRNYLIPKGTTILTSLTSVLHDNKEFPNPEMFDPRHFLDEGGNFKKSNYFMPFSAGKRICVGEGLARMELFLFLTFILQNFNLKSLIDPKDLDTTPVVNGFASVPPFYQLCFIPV

Molecule `O=C(Cc1ccc2c(c1)OCCO2)Nc1nc(-c2ccc3c(c2)CCC(=O)N3)cs1` [Compound (If)] has an inhibition at 1 µM (human platelets) of 31%, an IC50 (CYP1A2; CYP1A2, substrate phenacetin) greater than 10 µM and an inhibition at 25 min, 10 µM (CYP1A2; human, liver microsomes, pH 7.4, CYP1A2, 10µM, substrate phenacetin) of -5.3%. For the same molecule, the IC50 (CYP2C19; CYP2C19, substrate S-mephenytoin) was greater than 10 µM, the inhibition at 25 min, 10 µM (CYP2C19; human, liver microsomes, pH 7.4, CYP2C19, 10µM, substrate S-mephenytoin) was -18.8% and the IC50 (CYP2C9; CYP2C9, substrate diclofenac) was greater than 10 µM. For the same molecule, the inhibition at 25 min, 10 µM (CYP2C9; human, liver microsomes, pH 7.4, CYP2C9, 10µM, substrate diclofenac) was -0.7%, the Unbound fraction (Plasma protein) was 0.11% and the fraction unbound at 4 h, 5 µM [1] was 0.0011.
